According to publication PMC8261488, “Contraceptive progestins with androgenic properties stimulate breast epithelial cell proliferation” (EMBO Molecular Medicine, 2021):

How the values were obtained:
HBECs [1] = assay: In vivo growth of intraductal HBEC xenografts measured by radiance; details: 60 days of treatment, subcutaneous pellets
Description: To compare the effects of progesterone and different progestins on HBECs in vivo, we infected single cell suspensions obtained from fresh reduction mammoplasty specimens with GFP‐luciferase2‐expressing lentiviruses. The infected cell mixture was grafted intraductally to up to 5 glands of as many recipients as possible. The engraftment and growth of the xenografted cells were monitored weekly by in vivo imaging. When radiance reached > 10E07 on average per mammary gland, 60‐day‐release pellets were implanted subcutaneously, usually within 3–10 weeks after cell injection. At sacrifice, blood was collected and plasma levels of the administered compounds as well as endogenous steroid hormones were determined by liquid chromatography‐mass spectrometry (LC‐MS) (Laszlo et al, 2019).
Next, the in vivo growth of HBEC xenografts stimulated with progesterone or different progestins was analyzed. […] In addition, the fold change radiance of treated versus untreated samples at endpoint was calculated (Fig 5A–C).
Mice were anesthetized by intraperitoneal injection with 10 mg/kg xylazine and 90 mg/kg ketamine (Graeub) and injected intraductally with 10 μl cell suspension per gland. Bioluminescence imaging was performed as described (Sflomos et al, 2016). After 3–10 weeks, when bioluminescence from individual glands reached 10^7 total flux (p/s/cm2/sr), animals were assigned to different treatment groups and hormone pellets implanted subcutaneously. Enzalutamide (Selleckchem, Catalog No. S1250) dissolved in 15% DMSO in PEG300 was injected intraperitoneally 3 times/week at 30 mg/kg.
Pellets were prepared by mixing the required amount of part A, MP3745/E81949 and part B, MP3744/E81950 of low consistency silicon elastomer (MED‐4011) and hormone powder to homogeneity. Mix was transferred to a syringe and incubated at 37°C overnight. The silicon‐hormone mass was removed from the syringe and cut to pieces, as described (Duss et al, 2007). The original protocol was adapted for different doses as described below.

Rankl = Rankl transcript levels by RT-PCR in mouse mammary organoids stimulated ex vivo; format: cell-based; details: for Rankl transcript levels over vehicle-treated control: BalbC females, 6 h of stimulation
Procedure: (§1) Next, we stimulated mouse mammary organoids derived from several BalbC females with R5020 or different progestins (Fig 1A). […] No significant change in Rankl and Wnt4 transcript levels was detected during the first 2 h (Appendix Fig S1D). By 6 h of R5020 stimulation, Rankl and Wnt4 transcript levels increased 22.4 and 5.8‐fold over the vehicle‐treated control, respectively.
(§2) Animal experiments were performed in accordance with protocol approved by the Service de la Consommation et des Affaires vétérinaires of Canton de Vaud (VD 1865.3, VD 1865.4). NOD. Cg‐Prkdc^scid Il2rg^tm1Wjl/SzJ mice (Charles River), BalbC, and C57Bl6 breeders were purchased from Jackson Laboratories. Mammary glands were isolated from 18‐ to 35‐week‐old mice, lymph nodes removed, minced with surgical blades, and digested in DMEM/F12, 1% penicillin/streptomycin B with collagenase A 0.25 mg/ml (Roche). […] Fat was removed, and pellet containing organoids washed with phosphate‐buffered saline (PBS), resuspended 5 min in 3 ml red cell blood lysis buffer and washed twice with PBS.
(§3) Human breast microstructures and mouse organoids were homogenized in Trizol (Invitrogen). Aqueous phase containing RNA was chloroform extracted and processed with miRNeasy extraction kit (Qiagen). cDNA was synthesized using random p(dN)6 primers (Roche) and MMLV reverse transcriptase (Invitrogen). SYBR Green PCR Core Reagent System (Qiagen) was used for semi‐quantitative real time (RT‐PCR) using the following primers.

AR [2] = tested on: AR; parameters: method as in earlier work; details: various assays, ref Fuhrmann et al, 1995, Muhn et al, Bouchard, 2005, Mishell, 2008, Schneider et al, 2009, Africander et al, 2011, Louw‐du Toit et al, 2017; cited from earlier work
HBECs [3] = assay: MKI67/Ki67 expression in xenografted HBECs; format: in vivo, human; details: 21 days pellets; for cell proliferation (KI67 and hECAD double+ cells), overall analysis: HBECs from 11 different patients; for cell proliferation (KI67 and hECAD double+ cells): one mammoplasty (M310)
Description: (§4) Next, we sought for a readout of in vivo cell proliferation different from radiance. […] Given that MKI67 expression could replace the luciferase measurements as a readout, we used a modified experimental setup for a second round of experiments. We derived HBECs from viably frozen mammoplasty samples (Appendix Table S3) and engrafted them to different mammary glands of NSG females without viral infection. Four months later, the 24 recipient females, each engrafted with 5 different mammoplasties received pellets containing either vehicle, progesterone, or 1 of 6 progestins for 21 days. At sacrifice, xenografted glands were histologically sectioned and cell proliferation was quantified using co‐IF with anti‐MKI67 and anti‐hECAD antibodies. For one of the mammoplasties, we were able to obtain measurements for all experimental conditions (Fig 5I). […] For the remaining mammoplasties, between 3 and 8 different experimental conditions were successfully quantified (Appendix Table S4). […] CPA (P < 0.0001) decreased proliferation, whereas CMA and DSP had no effect (Fig 5K). As AR signaling increases AR protein levels, we performed co‐IF for AR and hECAD as another means to assess AR signaling activity.
(§5) Tissues were fixed for 2 h at room temperature in 4% paraformaldehyde and paraffin‐embedded. Dewaxed and rehydrated paraffin sections were pretreated in 10 mM Na citrate (pH 6.0) at 95° for 20 min. Blocking was performed with 1% BSA for 60 min. Primary antibodies used were as follows: Ki67 (rabbit α‐Ki67, clone Sp6, Spring Amsbio, dilution 1:200), ER (rabbit α‐ER, clone Sp1, Zytomed RTU), PR (rabbit α‐PR, clone 1E2, Ventana RTU), AR (rabbit α‐AR, clone SP107, Thermo Fisher, diluted 1:200), CK7 (rabbit α‐CK7, clone Sp52, Abcam, diluted 1:500), CK19 (mouse KS19.2 (Z105.6), American Research Products Inc. (diluted 1:50), and mouse α‐ECAD (clone G‐10, sc‐8426, diluted 1:100). For IHC, chromogenic revelation was performed with ChromoMap DAB kit (Roche Diagnostics, Switzerland) and sections were counterstained with Mayer’s hematoxylin. For fluorescence microscopy, nuclei were counterstained with DAPI (Sigma). IHC for ER, PR, and AR was performed on Discovery Ventana ULTRA (44). IHC images were acquired on Leica DM 2000 with Leica DFC450 C camera. IF images were acquired on Zeiss LSM700 confocal microscope. Slides were scanned with Olympus VS120‐L100 slide scanner with 20×/0.75 objective and Pike F505 C Color camera. Images were loaded into QuPath using the BioFormats extension (Bankhead et al, 2017).

[4] = tested on: endogenous hormone levels in mice; assay: Endogenous steroid hormone plasma levels in treated host mice by LC-MS; format: in vivo, mouse; details: xenografted NSG females with pellets
Description: Next, we assessed whether progesterone and progestins differentially affected endogenous hormone levels in mice. Plasma 17‐β‐estradiol levels were not affected by any of the treatments (Fig 4H). […] Plasma testosterone levels were not altered by any treatment with the exception of DSP, which decreased them (Fig 4H). Thus, prolonged exposures to progestins differentially affect endogenous progesterone plasma levels and DSP decreases testosterone plasma levels in host mice.

Wnt4 = Wnt4 transcript levels by RT-PCR in mouse mammary organoids stimulated ex vivo; format: cell-based; details: for Wnt4 transcript levels over vehicle-treated control: BalbC females, 6 h of stimulation
Procedure: as §1, §2, §3

AR [5] = assay: Percentage of AR+ cells in xenografted HBECs by co-IF for AR and hECAD; format: in vivo, human; details: 21 days pellets, HBECs from 11 different patients
Description: as §4, §5

women = women taking androgenic progestins; ref Rossouw et al, 2002; cited from earlier work
[6] = BalbC-derived organoids, 24 h of stimulation

CC(=O)O[C@]1(C(C)=O)CC[C@H]2[C@@H]3C=C(Cl)C4=CC(=O)CC[C@]4(C)[C@H]3CC[C@@]21C [CMA, chlormadinone acetate]
growth (course of radiance) of engrafted HBECs versus control (HBECs [1]): Neither CMA nor CPA had any effect on the growth | relative radiance at endpoint over control (FC) (HBECs [1]): 0.7 fold | Rankl transcript levels over vehicle-treated control (Rankl): failed to affect Rankl transcript levels at all | Rankl transcript induction (Rankl; [6]): no effect | Rankl transcript induction (Rankl; C57Bl/6 mice, 6 h, 20 nM): failed to increase Rankl transcript levels | androgenic / anti-androgenic activity (AR [2]): anti‐androgenic activity | cell proliferation (KI67 and hECAD double+ cells), overall analysis (HBECs [3]): no effect | cell proliferation (KI67 and hECAD double+ cells) (HBECs [3]): no effect | endogenous progesterone plasma levels (estrous cycle-related variation) [4]: tendency toward higher average level of progesterone | Wnt4 transcript levels over vehicle-treated control (Wnt4): did not alter Wnt4 transcript levels | Wnt4 transcript induction (Wnt4; [6]): no effect | Wnt4 transcript induction (Wnt4; C57Bl/6 mice, 6 h, 20 nM): did not alter Wnt4 transcript levels | percentage of AR+ cells (AR index) (AR [5]): no effect

CC(=O)O[C@]1(C(C)=O)CC[C@H]2[C@@H]3C=C(Cl)C4=CC(=O)[C@@H]5C[C@@H]5[C@]4(C)[C@H]3CC[C@@]21C [CPA, cyprotherone acetate]
growth (course of radiance) of engrafted HBECs versus control (HBECs [1]): Neither CMA nor CPA had any effect on the growth | relative radiance at endpoint over control (FC) (HBECs [1]): 0.7 fold | Rankl transcript levels over vehicle-treated control (Rankl): failed to affect Rankl transcript levels at all | Rankl transcript induction (Rankl; [6]): no effect | Rankl transcript induction (Rankl; C57Bl/6 mice, 6 h, 20 nM): failed to increase Rankl transcript levels | androgenic / anti-androgenic activity (AR [2]): anti‐androgenic activity | cell proliferation (KI67 and hECAD double+ cells), overall analysis (HBECs [3]): decreased | cell proliferation (KI67 and hECAD double+ cells) (HBECs [3]): decreased | endogenous progesterone plasma levels (estrous cycle-related variation) [4]: did not affect | Wnt4 transcript levels over vehicle-treated control (Wnt4): did not alter Wnt4 transcript levels | Wnt4 transcript induction (Wnt4; [6]): no effect | Wnt4 transcript induction (Wnt4; C57Bl/6 mice, 6 h, 20 nM): 2 fold | percentage of AR+ cells (AR index) (AR [5]): decreased

C[C@]12CCC(=O)C=C1[C@@H]1C[C@@H]1[C@H]1[C@@H]3[C@@H]4C[C@@H]4[C@@]4(CCC(=O)O4)[C@@]3(C)CC[C@@H]12 [DSP, drospirenone]
growth (course of radiance) of engrafted HBECs versus control (HBECs [1]): failed to affect | relative radiance at endpoint over control (FC) (HBECs [1]): 1.4 fold | Rankl transcript levels over vehicle-treated control (Rankl): failed to affect Rankl transcript levels at all | Rankl transcript induction (Rankl; [6]): no effect | Rankl transcript induction (Rankl; C57Bl/6 mice, 6 h, 20 nM): failed to increase Rankl transcript levels | androgenic / anti-androgenic activity (AR [2]): anti‐androgenic activity | cell proliferation (KI67 and hECAD double+ cells), overall analysis (HBECs [3]): no effect | cell proliferation (KI67 and hECAD double+ cells) (HBECs [3]): no effect | endogenous progesterone plasma levels (estrous cycle-related variation) [4]: suppressed | plasma testosterone levels [4]: decreased | Wnt4 transcript levels over vehicle-treated control (Wnt4): did not alter Wnt4 transcript levels | Wnt4 transcript induction (Wnt4; [6]): no effect | Wnt4 transcript induction (Wnt4; C57Bl/6 mice, 6 h, 20 nM): did not alter Wnt4 transcript levels | percentage of AR+ cells (AR index) (AR [5]): decreased

CC(=O)O[C@]1(C(C)=O)CC[C@H]2[C@@H]3C[C@H](C)C4=CC(=O)CC[C@]4(C)[C@H]3CC[C@@]21C [MPA]
breast cancer risk (women): elevated breast cancer risk
